Laboratory results: patent US20250154109A1, “SODIUM CHANNEL BLOCKING COMPOUNDS, DERIVATIVES THEREOF, AND METHODS OF THEIR USE” (LATIGO BIOTHERAPEUTICS, INC, priority 2022, published 2025)
Where two headings read alike, the source gives them in different places.

Molecular target: human Nav1.8 (Homo sapiens, UniProt Q9Y5Y9)
Experiment: SyncroPatch384PE assay (automated patch clamp)
Type: cell-based
Settings: human Nav1.8/b3 CHO cells
Method: Compounds were tested on recombinant human Nav1.8/b3 stably transfected CHO cells using the SyncroPatch384PE system (Nanion Technologies), an automated patch clamp device. Cells were cultured at 37° C./5% CO2 in Ham's F-12 supplemented with 10% fetal bovine serum, 100 U/mL penicillin G sodium, […] streptomycin sulfate and selection antibiotics (0.01 mg/mL Blasticidin, 0.4 mg/mL Zeocin and 0.25 mg/mL Hygromycin). On the day of the recordings, cells in culture dishes were washed twice with Hank's Balanced Salt Solution (HBSS) and treated with Accutase for approximately 20 minutes. Immediately before use in the SynchroPatch384PE using an 8-hole NPC-384 chip, the cells were washed in HBSS to remove the Accutase and re-suspended in extracellular solution. All experiments were performed at ambient temperature. Intracellular solution contained (mM): CsCl, 50; CsF, 90; MgCl2, 5; EGTA, 1; HEPES, 10; pH adjusted to 7.2 with CsOH. Extracellular solution contained (mM): NaCl, 137; KCl, 4.0; CaCl2), 3.8; MgCl2, 1; HEPES, 10; Glucose, 10; pH adjusted to 7.4 with NaOH. 100 nM tetrodotoxin (TTX) was added to the extracellular solution to block endogenous TTX-sensitive sodium currents.
Compounds were tested in quadruplicate in 0.3% DMSO and 0.03% pluronic Acid. Compounds were diluted 1:3.33 in extracellular solution to create an 8-point concentration response curve. Each plate contained a historical positive control and up to ten compounds. 300 μM tetracaine and 0.3% DMSO+0.03% pluronic acid were used as high and low controls respectively.
Whole cell patch clamp recordings were conducted according to Nanion's standard procedure for SyncroPatch384PE®. Cells were held at a holding potential of −120 mV. A depolarization step to 10 mV for 30 ms was applied (P1 measurement), followed by a hyperpolarization step to −100 mV for 100 ms. An inactivation step at −35 mV for 10 sec was applied before stepping to −100 mV for 20 ms, followed by a step to 10 mV for 30 ms (P2 measurement) and then back to −100 mV for 30 ms. Sweep interval was 15 sec. Following establishment of the whole-cell configuration in extracellular solution, cells were washed in extracellular solution containing 0.3% DMSO and 0.03% pluronic acid to stabilize the baseline current. Compounds were then applied by the SynchroPatch384 PE system into each well and the current was recorded for five minutes in extracellular solution, followed by application of tetracaine to achieve full block at the end of experiment. The potency of the compounds was assessed on two read-outs, resting state block (P1 measurement) or inactivated state block (P2 measurement) to obtain IC50 values. Values were normalized to high (tetracaine) and low (DMSO+pluronic acid) controls.
Examples 1 to 219 and Examples 225 to 236 are assayed using SyncroPatch384PE assay described above.

[1] = inactivated state block (P2 measurement), read-out: P2 IC50
[2] = resting state block (P1 measurement), read-out: P1 IC50

Chain of human Nav1.8 (Q9Y5Y9 whole entry): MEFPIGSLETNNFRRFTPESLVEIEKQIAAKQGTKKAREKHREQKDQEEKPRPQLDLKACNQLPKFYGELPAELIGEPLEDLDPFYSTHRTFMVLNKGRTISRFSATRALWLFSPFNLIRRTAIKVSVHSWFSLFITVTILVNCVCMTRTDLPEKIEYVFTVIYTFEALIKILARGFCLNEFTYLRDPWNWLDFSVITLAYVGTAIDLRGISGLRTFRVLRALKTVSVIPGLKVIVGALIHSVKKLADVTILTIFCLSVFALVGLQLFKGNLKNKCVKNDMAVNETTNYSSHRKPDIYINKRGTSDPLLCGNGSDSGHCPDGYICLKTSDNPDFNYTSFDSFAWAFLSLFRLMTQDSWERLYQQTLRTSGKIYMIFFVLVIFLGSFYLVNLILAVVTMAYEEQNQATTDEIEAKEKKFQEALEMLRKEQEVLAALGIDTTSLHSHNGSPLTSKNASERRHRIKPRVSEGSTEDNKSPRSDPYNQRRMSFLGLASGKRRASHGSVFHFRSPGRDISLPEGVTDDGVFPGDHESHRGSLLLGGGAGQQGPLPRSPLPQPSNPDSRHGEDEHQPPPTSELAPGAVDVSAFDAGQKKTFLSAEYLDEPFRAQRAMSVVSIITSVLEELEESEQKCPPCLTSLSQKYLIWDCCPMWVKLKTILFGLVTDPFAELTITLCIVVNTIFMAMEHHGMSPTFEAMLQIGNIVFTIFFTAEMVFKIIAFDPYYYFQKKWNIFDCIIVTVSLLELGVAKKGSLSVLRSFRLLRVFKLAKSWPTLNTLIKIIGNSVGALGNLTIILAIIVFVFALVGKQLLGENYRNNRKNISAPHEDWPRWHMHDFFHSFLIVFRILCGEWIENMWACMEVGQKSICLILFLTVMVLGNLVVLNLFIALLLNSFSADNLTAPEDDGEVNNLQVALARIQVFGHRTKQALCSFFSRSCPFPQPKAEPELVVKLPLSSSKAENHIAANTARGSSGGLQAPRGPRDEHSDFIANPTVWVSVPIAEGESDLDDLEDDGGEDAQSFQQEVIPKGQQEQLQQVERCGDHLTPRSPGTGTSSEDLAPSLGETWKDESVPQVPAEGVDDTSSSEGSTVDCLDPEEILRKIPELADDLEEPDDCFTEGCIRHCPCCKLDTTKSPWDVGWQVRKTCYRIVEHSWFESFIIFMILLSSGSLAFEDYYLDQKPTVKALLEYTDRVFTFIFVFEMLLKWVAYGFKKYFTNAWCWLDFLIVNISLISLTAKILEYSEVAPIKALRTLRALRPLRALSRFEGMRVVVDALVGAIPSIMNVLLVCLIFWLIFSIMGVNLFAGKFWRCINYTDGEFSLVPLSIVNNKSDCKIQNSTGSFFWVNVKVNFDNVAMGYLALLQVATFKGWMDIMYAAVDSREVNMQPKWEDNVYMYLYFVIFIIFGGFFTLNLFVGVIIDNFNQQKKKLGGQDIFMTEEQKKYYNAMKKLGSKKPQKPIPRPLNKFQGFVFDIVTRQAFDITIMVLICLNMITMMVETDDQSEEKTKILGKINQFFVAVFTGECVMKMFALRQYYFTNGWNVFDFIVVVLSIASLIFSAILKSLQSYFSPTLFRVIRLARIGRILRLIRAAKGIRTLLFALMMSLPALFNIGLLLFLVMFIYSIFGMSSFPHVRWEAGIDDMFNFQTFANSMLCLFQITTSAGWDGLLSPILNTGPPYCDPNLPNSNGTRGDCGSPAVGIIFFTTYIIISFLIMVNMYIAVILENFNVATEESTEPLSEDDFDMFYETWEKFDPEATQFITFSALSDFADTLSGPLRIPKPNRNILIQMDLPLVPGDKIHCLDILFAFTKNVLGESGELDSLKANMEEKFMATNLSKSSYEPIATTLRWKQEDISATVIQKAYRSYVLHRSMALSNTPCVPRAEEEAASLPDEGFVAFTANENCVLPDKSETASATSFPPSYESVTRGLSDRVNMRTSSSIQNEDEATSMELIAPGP

Row | Structure (SMILES) | IC50 [1] | IC50 [2]
1 | Cc1cc(C(F)(F)F)nc(N2CCCC(F)(F)CC2)c1C(=O)Nc1cccc([S@](C)(=N)=O)c1 [Example 33, (R)-2-(4,4-Difluoroazepan-1-yl)-4-methyl-N-(3-(S-methylsulfonimidoyl)phenyl)-6-(trifluoromethyl)nicotinamide] | ≤ 5 nM | ≤ 5 nM
2 | Cc1c(C(F)(F)F)nnc(N2CC3(COC3)C2)c1C(=O)Nc1cccc(S(C)(=N)=O)c1 (stereo not shown) [Example 100, 5-methyl-N-(3-(S-methylsulfonimidoyl)phenyl)-3-(2-oxa-6-azaspiro[3.3]heptan-6-yl)-6-(trifluoromethyl)pyridazine-4-carboxamide] | > 200 nM | > 200 nM
3 | Cc1c(-c2nccs2)cnc(N2CCCC(F)(F)CC2)c1C(=O)Nc1cccc(S(C)(=N)=O)c1 (stereo not shown) [Example 98, 2-(4,4-difluoroazepan-1-yl)-4-methyl-N-(3-(S-methylsulfonimidoyl)phenyl)-5-(thiazol-2-yl)nicotinamide] | 5 to 50 nM | 5 to 50 nM
4 | Cc1c(C(F)(F)F)cnc(N2CCCC(F)(F)CC2)c1C(=O)Nc1cccc([S@@](C)(=N)=O)c1 [Example 163, (S)-2-(4,4-difluoroazepan-1-yl)-4-methyl-N-(3-(S-methylsulfonimidoyl)phenyl)-5-(trifluoromethyl)nicotinamide] | ≤ 5 nM | ≤ 5 nM
5 | Cc1c(C(=O)Nc2cccc([S@@](C)(=O)=NC(=O)[C@@H](C)O)c2)c(N2CCCC(F)(F)CC2)nc(C(F)(F)F)c1-c1cnn(C)c1 [Example 236, 2-(4,4-difluoroazepan-1-yl)-N-(3-((R)-N-((R)-2-hydroxypropanoyl)-S-methylsulfonimidoyl)phenyl)-4-methyl-5-(1-methyl-1H-pyrazol-4-yl)-6-(trifluoromethyl)nicotinamide] | ≤ 5 nM | ≤ 5 nM
6 | Cc1c(C2CC2)nnc(N2CCCC(F)(F)CC2)c1C(=O)Nc1cccc(S(C)(=N)=O)c1 (stereo not shown) [Example 22, 6-cyclopropyl-3-(4,4-difluoroazepan-1-yl)-5-methyl-N-(3-(S-methylsulfonimidoyl)phenyl)pyridazine-4-carboxamide] | > 200 nM | > 200 nM
7 | CS(=N)(=O)c1cccc(NC(=O)c2cc(C(F)(F)F)nnc2N2CCCC(F)(F)CC2)c1 (stereo not shown) [Example 6, 3-(4,4-difluoroazepan-1-yl)-N-(3-(S-methylsulfonimidoyl)phenyl)-6-(trifluoromethyl)pyridazine-4-carboxamide] | 5 to 50 nM | 5 to 50 nM
8 | Cc1c(C#N)cnc(N2CCCC(F)(F)CC2)c1C(=O)NC12CC(C(N)=O)(C1)C2 [Example 136, N-(3-carbamoylbicyclo[1.1.1]pentan-1-yl)-5-cyano-2-(4,4-difluoroazepan-1-yl)-4-methylnicotinamide] | ≤ 5 nM | ≤ 5 nM
9 | CNCC(=O)N=[S@](C)(=O)c1cccc(NC(=O)c2c(N3CCCC(F)(F)CC3)ncc(C#CC3CC3)c2C)c1 [Example 64, (R)-5-(cyclopropylethynyl)-2-(4,4-difluoroazepan-1-yl)-4-methyl-N-(3-(S-methyl-N-(methylglycyl)sulfonimidoyl)phenyl)nicotinamide] | ≤ 5 nM | ≤ 5 nM
10 | Cc1c(C(F)(F)F)cnc(N2CCCC(F)(F)CC2)c1C(=O)Nc1cccc([S@@](C)(=O)=NC(=O)CO)c1 [Example 195, (R)-2-(4,4-difluoroazepan-1-yl)-N-(3-(N-(2-hydroxyacetyl)-S-methylsulfonimidoyl)phenyl)-4-methyl-5-(trifluoromethyl)nicotinamide] | ≤ 5 nM | ≤ 5 nM
11 | Cc1c(Cl)c(C(F)(F)F)nc(N2CCCC(F)(F)CC2)c1C(=O)Nc1cccc([S@@](C)(=N)=O)c1 [Example 108, (S)-5-chloro-2-(4,4-difluoroazepan-1-yl)-4-methyl-N-(3-(S-methylsulfonimidoyl)phenyl)-6-(trifluoromethyl)nicotinamide] | ≤ 5 nM | ≤ 5 nM
12 | Cc1c(-c2cnn(C)c2)cnc(N2CCCC(F)(F)CC2)c1C(=O)Nc1cccc([S@@](C)(=O)=NC(=O)[C@H](C)O)c1 [Example 231, 2-(4,4-difluoroazepan-1-yl)-N-(3-((R)-N-((S)-2-hydroxypropanoyl)-S-methylsulfonimidoyl)phenyl)-4-methyl-5-(1-methyl-1H-pyrazol-4-yl)nicotinamide] | 5 to 50 nM | 5 to 50 nM
13 | Cc1nc(N2CCCC(F)(F)CC2)c(C(=O)Nc2cccc([S@@](C)(=N)=O)c2)c(C)c1C(F)(F)F (single isomer, unassigned) [Example 185] | ≤ 5 nM | ≤ 5 nM
14 | Cc1cc(C#N)nc(N2CCCC(F)(F)CC2)c1C(=O)Nc1ccnc([S@](C)(=N)=O)c1 [Example 204, (R)-6-cyano-2-(4,4-difluoroazepan-1-yl)-4-methyl-N-(2-(S-methylsulfonimidoyl)pyridin-4-yl)nicotinamide] | 5 to 50 nM | 5 to 50 nM
15 | Cc1c(-c2cnn(C)c2)cnc(N2CCCC(F)(F)CC2)c1C(=O)Nc1cccc([S@@](C)(=O)=NC(=O)CO)c1 [Example 229, (R)-2-(4,4-difluoroazepan-1-yl)-N-(3-(N-(2-hydroxyacetyl)-S-methylsulfonimidoyl)phenyl)-4-methyl-5-(1-methyl-1H-pyrazol-4-yl)nicotinamide] | 5 to 50 nM | 5 to 50 nM
16 | Cc1c(-c2cnn(C)c2)cnc(N2CCCC(F)(F)CC2)c1C(=O)Nc1ccc(F)c([S@@](C)(=N)=O)c1 [Example 213, (S)-2-(4,4-difluoroazepan-1-yl)-N-(4-fluoro-3-(S-methylsulfonimidoyl)phenyl)-4-methyl-5-(1-methyl-1H-pyrazol-4-yl)nicotinamide] | 100 to 200 nM | 100 to 200 nM
17 | Cc1c(-c2cnn(C)c2)ccc(N2CCCC(F)(F)CC2)c1C(=O)Nc1cccc([S@](C)(=N)=O)c1 [Example 78, (R)-6-(4,4-difluoroazepan-1-yl)-2-methyl-3-(1-methyl-1H-pyrazol-4-yl)-N-(3-(S-methylsulfonimidoyl)phenyl)benzamide] | > 200 nM | > 200 nM
18 | O=C(Nc1ccnnc1)c1nnc(C(F)(F)F)cc1N1CCCC(F)(F)CC1 [Example 32, 4-(4,4-Difluoroazepan-1-yl)-N-(pyridazin-4-yl)-6-(trifluoromethyl)pyridazine-3-carboxamide] | > 200 nM | > 200 nM
19 | CNCC(=O)N=[S@](C)(=O)c1cccc(NC(=O)c2c(N3CCCC(F)(F)CC3)ncc(-c3cc(F)cc(F)c3)c2C)c1 [Example 62, (R)-2-(4,4-difluoroazepan-1-yl)-5-(3,5-difluorophenyl)-4-methyl-N-(3-(S-methyl-N-(methylglycyl)sulfonimidoyl)phenyl)nicotinamide] | ≤ 5 nM | ≤ 5 nM
20 | Cc1c(C(F)(F)F)nnc(N2CCCC(F)(F)CC2)c1C(=O)Nc1cccc(S(C)(=N)=N)c1 [Example 120, 3-(4,4-difluoroazepan-1-yl)-N-{3-[diimino(methyl)-λ^6-sulfanyl]phenyl}-5-methyl-6-(trifluoromethyl)pyridazine-4-carboxamide] | 50 to 100 nM | 100 to 200 nM
21 | CNCC(=O)N=[S@](C)(=O)c1cccc(NC(=O)c2c(N3CCCC(F)(F)CC3)ncc(-c3cnn(C)c3)c2C)c1 [Example 46, (R)-2-(4,4-difluoroazepan-1-yl)-4-methyl-5-(1-methyl-1H-pyrazol-4-yl)-N-(3-(S-methyl-N-(methylglycyl)sulfonimidoyl)phenyl)nicotinamide] | 5 to 50 nM | 5 to 50 nM
22 | Cc1nc(C(F)(F)F)nc(N2CCCC(F)(F)CC2)c1C(=O)Nc1cccc([S@](C)(=N)=O)c1 [Example 135, (R)-4-(4,4-difluoroazepan-1-yl)-6-methyl-N-(3-(S-methylsulfonimidoyl)phenyl)-2-(trifluoromethyl)pyrimidine-5-carboxamide] | 5 to 50 nM | 5 to 50 nM
23 | COc1ccc(-c2nnc(N3CCCC(F)(F)CC3)c(C(=O)Nc3cccc([S@@](C)(=N)=O)c3)c2C)cc1 (single isomer, unassigned) [Example 137] | > 200 nM | > 200 nM
